Results on six compounds are retold here after patent EP1154766B1, “USE OF R-ARYL PROPIONIC ACIDS FOR PRODUCING MEDICAMENTS TO TREAT DISEASES IN HUMANS AND ANIMALS, WHEREBY SAID DISEASES CAN BE […] INFLUENCED BY INHIBITING THE ACTIVATION OF NF-KAPPA B” (PAZ Arzneimittel- Entwicklungsgesellschaft mbH, priority 1999, dated 2000).

For data set [1], the system named is postoperative dental pain. The conditions noted are these: clinical study in patients, literature; cited from earlier work.
Data set [2] has as its system NF-κB (p50/p65 Komplex von NF-κB). The data set can be described thus: Electro mobility-shift assay (gel retention analysis) of LPS-induced NF-κB activation in RAW cells. It counts as cell-based. The text has this:
Die erfindungsgemäßen Arzneimittel auf der Basis von R-Arylpropionsäuren und deren Derivaten gemäß Anspruch 1 als Hemmer der NF-κB-Aktivierung zur Therapie von Erkrankungen, welche durch die Modifizierung der NF-κB-Aktiierung beeinflußt werden, beruht auf folgenden experimentellen Untersuchungen: Abb. 2: Konzentrationsabhängiger Einfluß von R- und S-Flurbiprofen auf die Aktivierung des Transkriptionsfaktors NF-κB in RAW-Zellen. Die Gelretentionsanalyse (Electro Mobility-Shift Assay; DIG Gel Shift Kit, Boehringer Mannheim) zeigt, daß LPS (1 µg/ml) zu einer Aktivierung von NF-κB (p50/p65 Komplex von NF-κB) führt (Spur Nr. 2 und 10). […] Eine densitometrische Auswertung ergab, daß S-Flurbiprofen hinsichtlich dieser Eigenschaften ca. 100 mal weniger potent war (Spur Nr. 11, 12, 13,14, gegen Spur Nr. 10 als Kontrolle). Spur Nr. 1 und 8 zeigen jeweils unstimulierte Kontrollzellen.

Data set [3] has as its system Zymosan-induzierte Rattenpfotenödem. The data set can be described thus: Zymosan-induced rat paw oedema (plethysmograph). The note with it: for Pfotenvolumen: rat, intraplantar zymosan, R-Flurbiprofen 1 to 27 mg/kg intraperitoneal, Abb. 3a-c. It counts as in vivo, Ratte. The text has this: Da der nukleäre Transkriptionsfaktor NF-κB u.a. für die Bildung, einer Reihe von Enzymen mit proinflammatorischer und ödembildender Eigenschaften verantwortlich ist, wurde der Einfluß von R-Flurbiprofen auf das Zymosan-induzierte Rattenpfotenödem bestimmt (Methode beschrieben bei: Meller ST und Gebhart GF: Intraplantar zymosan as a reliable, quantifiable model of thermal and mechanical hyperalgesia in the rat; European Journal of Pain, 1, 43-52 (1997). Abbildung 3 a - c faßt die Ergebnisse zusammen. Abb. 3a - c: Zeitabhängige Zunahme des Rattenpfotenvolumens (gemessen mit einem Plethysmographen) nach intraplantarer Applikation von Zymosan. Nach Applikation von Zymosan [Meller and Gebhart (s.o.)] in eine Hinterpfote der Ratte kommt es als Zeichen einer Entzündung zur Zunahme des Pfotenvolumens (Placebo-Gruppe, Applikation von Vehicle = Phosphatpuffer (PP)). […] Dieser Effekt war besonders ausgeprägt zwischen der 2. und 6. Stunde nach Zymosan-Applikation. Dexamethason (0,5 mg/kg Körpergewicht), ein bekannter Hemmer der NF-κB Aktivierung, wurde als Positivkontrolle eingesetzt. […] S-Flurbiprofen ist ein bekannter Hemmer der Cyclooxygenasen. Abb. 4: Zusammenfassung der Effekte von 9 mg/kg R-Flurbiprofen, 9 mg/kg S-Flurbiprofen und 0,5 mg/kg Dexamethason gegen Placebo (V) über 24 Stunden.

In the next data set the test system is NF-κB. The data set can be described thus: Inhibition of NF-κB activation, method not stated. The note with it: arylpropionic acid derivatives without notable CoA thioester formation in humans.
Data set [4] concerns gastrointestinale Verträglichkeit. The note with it: studies in humans, literature; cited from earlier work.
Data set [5] has as its system akutem Postepisiotomie-Schmerz. The data set can be described thus: Placebo-controlled double-blind study in acute post-episiotomy pain. The conditions noted are these: single oral dose 25 mg or 100 mg, pain scale 0-3 over 360 min, Abb. 1. It counts as in vivo, Frauen. How it is done:
Abb. 1: Placebo-kontrollierte Doppelblind-Studie an 180 Frauen mit akutem Postepisiotomie-Schmerz (Mittelwertkurven)
Die hospitalisierten Patienten wurden in drei Medikationsgruppen mit je 50 Patienten und einer Placebogruppe (30 Patienten) randomisiert. Jede Patientin erhielt innerhalb 48 Stunden nach der ansonsten normal verlaufenden Entbindung eine Einzeldosis der zu untersuchenden Studienmedikation (25 mg R(-)Flurbiprofen oder 100 mg R(-)Flurbiprofen oder 1000 mg Paracetamol) oder ein Placebo oral verabreicht. Kurz vor der oralen Gabe der Testpräparate bzw. des Placebos und zu genau festgelegten Untersuchungszeitpunkten (15, 30, 45, 60, 120, 180, 240, 300 und 360 Minuten) wurden die Patienten bezüglich ihres Schmerzempfindens befragt. Die Wirksamkeit der einzelnen Präparate wurde anhand einer Schmerzempfindungs-Skala (0 = keine, 1 = mild, 2 = moderat, 3 = stark) beurteilt. Die zeitlichen Verläufe sind in den in Abbildung 1 wiedergegebenen Mittelwertkurven der einzelnen Patientengruppen zusammengefaßt.

On to `C[C@@H](C(=O)O)c1cccc(C(=O)c2ccccc2)c1` [R-Ketoprofen], for which the “schmerzlindernde Wirkung” value in data set [1] is “nachgewiesen”.

Consider `C[C@H](C(=O)O)c1ccc(-c2ccccc2)c(F)c1` [S-Flurbiprofen, reference compound], for which the “Potenz der Hemmung der NF-κB Aktivierung, mal weniger potent than R-Flurbiprofen” value in data set [2] (densitometric evaluation of the gel shift, RAW-Zellen, LPS 1 µg/ml) is listed as “ca. 100 mal”. The Pfotenvolumen entry in data set [3] is recorded as “Reduktion des Pfotenvolumens”.

As to `CC(C(=O)O)c1ccc(-c2ccccc2)c(F)c1` (stereo not shown) [Flurbiprofen], in the data set with NF-κB, the “Hemmung der Aktivierung von NF-κB” value is “ausgeprägte Hemmung der Aktivierung von NF-κB”.

On to `CC(C(=O)O)c1cccc(C(=O)c2ccccc2)c1` (stereo not shown) [Ketoprofen], for which the “Hemmung der Aktivierung von NF-κB” value in the data set with NF-κB is “ausgeprägte Hemmung der Aktivierung von NF-κB”.

With `COc1ccc2cc([C@H](C)C(=O)O)ccc2c1` [Naproxen], in the data set with NF-κB, the “Hemmung der Aktivierung von NF-κB” value is “ausgeprägte Hemmung der Aktivierung von NF-κB”.

On to `C[C@@H](C(=O)O)c1ccc(-c2ccccc2)c(F)c1` [R-Flurbiprofen], for which, in data set [4], the “gastrointestinale Verträglichkeit” value is “gute gastrointestinale Verträglichkeit”. In addition, the “schmerzlindernde Wirkung” value in data set [5] was “nachgewiesen”. The “Hemmung der LPS induzierten Aktivierung von NF-κB” value in data set [2] (RAW-Zellen, LPS 1 µg/ml, micromolar concentrations, Abb. 2) was “waren in der Lage diese LPS induzierte Aktivierung von NF-κB zu hemmen”. The “Hemmung der NF-κB Aktivierung, mal potenter als die entsprechenden S-Enantiomere” value in data set [2] (relative to the corresponding S-enantiomer) was “ca. 100 mal”. For the same compound, the “Effekte auf das Pfotenvolumen über 24 Stunden gegen Placebo” value in data set [3] (9 mg/kg, compared with 0,5 mg/kg Dexamethason, Abb. 4) is recorded as “vergleichbar mit denen nach 0,5 mg/kg Dexamethason”. Moreover, in data set [3] (hours after zymosan application), the “Zeitraum, in dem der Effekt auf das Pfotenvolumen besonders ausgeprägt war” value was “zwischen der 2. und 6. Stunde”. For the same compound, the Pfotenvolumen result in data set [3] is “überraschende Abnahme des Pfotenvolumens”.
